The subject of assay [1] is HCT116 human colon cancer cells. Description: MTT assay, antiproliferative activity. Format: cell-based. Particulars: HCT-116, 72 hours. How it is done: (§1) Table 6C provides data on inhibition of HDAC1 enzyme, on antiproliferative activities (HCT116 human colon cancer cells) of the compounds using 3-[4,5-dimethylthiazol-2-yl-2,5-diphenyltetrazolium]bromide (MTT) assay, as well as induction of p21^WAF1/Cip1 tumor suppressor gene.
Compounds at various concentrations were added to human colon cancer HCT116 cells plated in 96-well plates. Cells were incubated for 72 hours at 37° C. in 5% CO2 incubator. MTT (3-[4,5-dimethylthiazol-2-yl]-2,5 diphenyl tetrazolium bromide, Sigma) was added at a final concentration of 0.5 mg/ml and incubated with the cells for 4 hours before an equal volume of solubilization buffer (50% N,N-dimethylformamide, 20% SDS, pH 4.7) was added onto cultured cells. After overnight incubation, solubilized dye was quantified by colorimetric reading at […] using a reference at 630 nM. OD values were converted to cell numbers according to a standard growth curve of the relevant cell line. The concentration which reduces cell numbers to 50% of those of DMSO-treated cells is determined as MTT IC50,
On the technique in general: Tetrazolium dyes change colour on reduction, which living cells bring about.

Assay [2] has as its system p21^WAF1/Cip1 tumor suppressor gene. Put plainly: p21WAF1/Cip1 assay (p21 promoter-driven luciferase reporter). Format: cell-based, human. The conditions noted are these: HCT116 cells with p21 promoter-driven luciferase, 16 hours; compared with MS-275. How it is done: as §1
HCT116 cells were stably transfected with reporter plasmids encoding the p21 promoter-driven luciferase. Cells were treated with indicated concentration of HDAC inhibitors for 16 hours before cells were harvested and luciferase activity analyzed. The effective concentration (EC) of MS-275 was designated as 1 uM. The ability of HDAC inhibitor was compared with that of MS-275 (T. Suzuki, et. al J. Med. Chem., 1999, 3001-3003).
(Reporter assays use an easily measured gene product as a stand-in for the process of interest.)

Assay [3] has as its system HCT116 human colorectal carcinoma cells. Description: Antineoplastic effects on human tumor xenografts in vivo, HCT116. The conditions noted are these: hct116 xenograft in mice, daily injection. How it is done:
(§2) Eight to ten week old female BCDI mice (Taconic Labs, Great Barrington, N.Y.) were injected subcutaneously in the flank area with 2×10^6 preconditioned HCTI 16 human colorectal carcinoma cells, A549 human lung cancer, SW48 human colorectal cancer, A431 vulval caracinoma and colo205 human colorectal cancer. Preconditioning of these cells was done by a minimum of three consecutive tumor transplantations in the same strain of nude mice. Subsequently, tumor fragments of approximately 30 mgs were excised and implanted subcutaneously in mice, in the left flank area, under Forene anesthesia (Abbott Labs, Geneva, Switzerland). When the tumors reached a mean volume of 100 mm^3, the mice were treated intravenously, subcutaneously, or intraperitoneally by daily injection, with a solution of the histone deacetylase inhibitor in an appropriate vehicle, such as PBS, DMSO/water, or Tween 80/water, at a starting dose of 10 mg/kg. The optimal dose of the HDAC inhibitor was established by dose response experiments according to standard protocols. Tumor volume was calculated every second day post infusion according to standard methods (e.g., Meyer et al., Int. J. Cancer 43: 851-856 (1989)).

In another assay the test system is A431 vulval carcinoma. Description: Antineoplastic effects on human tumor xenografts in vivo, A431. The conditions noted are these: A431 xenograft in mice, daily injection. How it is done:
as §2
(In xenograft studies the graft and the host belong to different species.)

The test system of a further assay is A549 human lung cancer. Put plainly: Antineoplastic effects on human tumor xenografts in vivo, A549. The conditions noted are these: A549 xenograft in mice, daily injection. As for the experimental part:
as §2

This is an account of results in US7868205B2, “Inhibitors of histone deacetylase” (MethylGene Inc., priority 2003, dated 2011).

On to `CC(=O)Nc1ccc(C(=O)Nc2cc(-c3cccs3)ccc2N)cc1` [258aa, 4-acetamido-N-(2-amino-5-(thiophen-2-yl)phenyl)benzamide], for which the IC50 (in general, the concentration at which inhibition is half-maximal) in assay [1] was less than 1000 nM. In addition, in assay [2], the “P21 (HCT116) μM, effective concentration (EC) for induction of p21” value is reported as “b (1≦b≦20)”. Also, the antineoplastic effects entry (in assay [3]; in the assay with A431 vulval carcinoma; in the assay with A549 human lung cancer) was “antineoplastic effects” throughout.
